Columns and labels:
Type in all cases: cell-based, human
[1] = system: NS-SV-AC cells; experiment: TNF-α-induced cytotoxicity, MTT assay; details: dose-dependent; 100 ng/ml TNFα, 24 hr; p<0.05
Procedure: TNF-α cyotoxicity: NS-SV-AC cells (0.5×10<4> cells/well) were seeded in a 96-well microplate and either treated for 24 hr with EGCC as described above (or not treated in the control), in the presence of 100 ng/ml TNFα and 10 μg/ml cyclohexamide. After the treatments, viability was determined by the MTT assay. The cells in each well were washed with 200 μl of phosphate-buffered saline (PBS) and incubated with 100 μl of 2% (w/v) MTT in a solution of 0.05 M Tris-HCl (pH 7.6), 0.5 mM MgCl2, 2.5 mM CoCl2 and 0.25 M disodium succinate at 37° C. for 30 min. Cells were fixed by the addition of 100 μl of 4% (v/v) formalin in 0.2 M Tris-HCl (pH 7.6), and after a 5 min incubation at room temperature liquid was removed and the wells were allowed to dry. Each well was rinsed with 200 μl water and cells were solubilized by the addition of 100 μl of 6.35% (v/v) 0.1 N NaOH in DMSO. The colored formazan product was measured by a Thermo MAX micro plate reader (Molecular Devices Corp. Sunnyvale, Calif.) at a wavelength of 562 nm.
We examined the effects of EGCG on TNF-α-induced cytotoxicity of the human salivary gland acinar cell line NS-SV-AC using the MTT assay.
To examine the role of activation of the p38 signaling pathway in reducing TNF-α-induced cytotoxicity, cells were exposed to TNF-[alpha] and EGCG in the presence of either the p38 MAPK inhibitor SB203580 or the MEK inhibitor PD98059.

[2] = system: NHEK; experiment: Western analysis of autoantigen protein levels; details: 100 uM
Procedure: (§1) Western blot. Cells were washed in ice-cold PBS and lysed for 20 min in RIPA buffer containing 1% (v/v) Nonidet P-40, 0.5% (w/v) sodium deoxycholate, 0.1% (w/v) SDS, 10 μg/ml leupeptin, 3 μg/ml aprotinin and 100 mM phenylmethylsulfonyl fluoride (PMSF). Samples of lysates containing the same amount of protein were loaded in each lane (we used 5-30μg, depending on the antibody used) and electrophoretically separated on a 12% SDS polyacrylamide gel. Following electrophoresis, proteins were transferred to a PVDF membrane (Immobilon™-P, Millipore Corporation, Bedford, Mass.). The membrane was blocked for 1 h with 5% (w/v) non-fat dry milk powder in PBST (0.1% Tween-20 in PBS) and then incubated for 1 h with primary antibody diluted in PBST/milk (Antibodies and dilutions: rabbit polyclonal JNK1/2, […], mouse monoclonal pJNK1/2, 1:1000, rabbit polyclonal ERK, 1:2000, rabbit polyclonal p38, 1:1000, rabbit polyclonal pp 38, 1:1000 and goat polyclonal actin, 1:2000). The membrane was washed three times with PBST and incubated with peroxidase-conjugated, affinity-purified anti-rabbit IgG (Santa Cruz Biotechnology, Inc.) for 1 h. Following extensive washing, the reaction was developed by enhanced chemiluminescent staining using ECL Western blotting detection reagents (Amersham Pharmacia Biotech Inc., Piscataway, N.J.).
(§2) To extend the mRNA data, the protein levels of 6 different autoantigens in NHEK and NS-SV-AC cells were determined by Western analysis following two treatments with 100 uM EGCSG at 24 and 48 hrs.

[3] = system: NS-SV-AC cells; experiment: Western analysis of autoantigen protein levels; details: 100 uM
Procedure: as §1, §2

[4] = system: NS-SV-AC cells; experiment: Western blot of p38, ERK and JNK phosphorylation
Procedure: as §1
p38 activation is one mechanism by which GTPs attenuates mechanisms of SS pathogenesis. […] Therefore, of these three signaling pathways, EGCG activates primarily p38 in NS-SV-AC cells.

[5] = system: OSC2 cells; experiment: Semi-quantitative RT-PCR of SS-A/Ro and SS-B/La mRNA; details: 100 uM EGCG
Procedure: (§3) Total RNA was extracted using an RNeasy total RNA isolation system (QIAGEN, Valentia, Calif.) RT reactions and PCR reactions were performed according to the manufacturer's protocol (Super Array Bioscience Corp). For amplification, the following pair of primers was used,
(§4) Amplification was started by heating for 1.5 min at 94° C., followed by 30 cycles for 52 kD SSA/Ro. 25 cycles for GAPDH and 25 cycles for SSB/La, each cycle consisting of 15
(§5) second at 94° C., 30 seconds at 57.3° C., and 1 min at 72° C. A final extension was performed at 72° C. for 5 min prior to gel analysis.
(§6) To further test this possibility, three cell types, NHEK, NS-SV-AC (an SV40 immortalized cell line derived from human submandibular acinar cells) and OC2 cells (derived from an oral squamous cell carcinoma) were treated with 100 uM EGCG for different times. A semi-quantitative estimate of SS-A/Ro and SS-B/La mRNA levels was then obtained by RT-PCR during the exponential period of amplification. GAPDH was used as a housekeeping gene control.

[6] = system: NHEK; experiment: as above; details: 100 uM EGCG, different times
Procedure: (§7) Cell treatment: ECCG was dissolved in cell culture media as a 50 mM stock immediately before use. Exponentially growing NS-SV-AC cells were incubated with 100 μM ECCG for various time periods in the growth media described above, and then were either extracted for total RNA or cell lysates prior to RT-PCR or Western blots.
as §3, §4, §5, §6

[7] = system: NS-SV-AC cells; experiment: as above; details: 100 uM EGCG, different times
Procedure: as §7, §3, §4, §5, §6

Structure (SMILES): O=C(O[C@@H]1Cc2c(O)cc(O)cc2O[C@@H]1c1cc(O)c(O)c(O)c1)c1cc(O)c(O)c(O)c1 [EGCG, (−)-epigallocatechin-3-gallate]
- protection from TNFα-induced cytotoxicity [1]: up to 50%
- PARP protein level ([2]; 24 hrs): significantly reduced
- SS-A/Ro 52 protein level ([2]; 24 hrs): Neither SS-A/Ro 52 nor SS-B/La were significantly reduced
- SS-B/La protein level ([2]; 24 hrs): Neither SS-A/Ro 52 nor SS-B/La were significantly reduced
- coilin protein level ([2]; 24 hrs): significantly reduced
- Golgin-67 protein level ([2]; 48 hrs): the reduction was not as marked and was only observed at 48 hrs
- PARP protein level ([2]; 48 hrs): barely detectable
- SS-A/Ro 52 protein level ([2]; 48 hrs): considerably reduced
- SS-B/La protein level ([2]; 48 hrs): considerably reduced
- coilin protein level ([2]; 48 hrs): barely detectable
- Golgin-67 protein level ([3]; 24 hrs): reduced
- PARP protein level ([3]; 24 hrs): significantly reduced
- SS-A/Ro 52 protein level ([3]; 24 hrs): Neither SS-A/Ro 52 nor SS-B/La were significantly reduced
- SS-B/La protein level ([3]; 24 hrs): Neither SS-A/Ro 52 nor SS-B/La were significantly reduced
- coilin protein level ([3]; 24 hrs): significantly reduced
- Golgin-67 protein level ([3]; 48 hrs): barely detectable
- PARP protein level ([3]; 48 hrs): barely detectable
- SS-A/Ro 52 protein level ([3]; 48 hrs): considerably reduced
- SS-B/La protein level ([3]; 48 hrs): considerably reduced
- coilin protein level ([3]; 48 hrs): barely detectable
- pERK [4]: only a slight increase
- phosphorylation of JNK [4]: not altered
- phosphorylation of p38 [4]: rapid and sustained phosphorylation
- time to p38 phosphorylation [4]: ≤ 30 min
- SS-A/Ro mRNA level [5]: showed little change
- reduction in SS-B/La mRNA [5]: less pronounced and did not occur until 24 hrs of exposure
- SS-B/La mRNA level [6]: decreased progressively and substantially
- SS-B/La mRNA level [7]: decreased progressively and substantially
